Data on two compounds can be found in US10407415B2, “Dihydrate of benzothiophene compound or of a salt thereof, and process for producing the same” (OTSUKA PHARMACEUTICAL CO., LTD., priority 2012, dated 2019).

Data set [1] in a line: Measurement of drug residue in muscle. It is filed as in vivo. Particulars: rat, injectable preparation 100 mg/mL (finely ground, mean particle diameter 3.5 μm) intramuscularly injected at 25 mg/kg, dissected 56 days after the injection. The protocol: The dihydrate of the present invention (150 mg) was dispersed to the suspension medium (1 mL) described below, and pulverized using 5 mm zirconia beads (1.2 g, pulverization time: 30 min) while being stirred with a stirrer. The suspension medium used for pulverization was a solution containing 0.832% (w/v) sodium carboxymethylcellulose (CMC-Na), 4.16% (w/v) mannitol, and 0.074% (w/v) sodium dihydrogenphosphatemonohydrate. The pH thereof was adjusted to 7.0 by adding an appropriate amount of sodium hydroxide. The concentration of each preparation was adjusted to 100 mg/mL using this medium.
An anhydride was subjected to pulverization in the same manner to obtain an anhydride (finely ground product) having a mean particle diameter of 3.5 μm. The mean particle diameter was measured using a laser diffraction particle size analyzer (SALD-3000) or SALD-3100, manufactured by Shimadzu Corporation).
Injectable preparations each containing the dihydrate of the present invention (finely ground product, mean particle diameter: 3.5 μm) or an anhydride (finely ground product, mean particle diameter: 3.5 μm) were obtained by the procedure described above.
Each injectable preparation thus obtained was intramuscularly injected into a rat in a dosage of 25 mg/kg. Each injectable preparation was injected into three rats.

The nature of data set [2]: Pharmacokinetics test using a dog (intramuscular injectable preparation). It is filed as in vivo. To be noted: 10 mg/kg calculated as the anhydride. As to the method: Injectable preparations containing the dihydrate of the present invention as an active ingredient were formulated as shown in Table 3. Each of the injectable preparations was injected into the thigh muscle of a dog in such a dosage that 10 mg/kg of active ingredient calculated as the anhydride of the present invention was contained. FIG. 14 is a graph showing the mean blood concentration-time profile after the injection. As is clear from FIG. 14, the sustained release property can be stably maintained for more than 30 days from the injection.

In the case of `O=c1ccc2ccc(OCCCCN3CCN(c4cccc5sccc45)CC3)cc2[nH]1` [Dihydrate, 7-[4-(4-benzo[b]thiophen-4-yl-piperazin-1-yl)butoxy]-1H-quinolin-2-one dihydrate], the “The number having residue in muscle (Number having residue/Total)” value in data set [1] (dihydrate) is 3/3. Besides, the “time for which the sustained release property is stably maintained (mean blood concentration-time profile, FIG. 14)” value in data set [2] (injected into the thigh muscle, Table 3 formulation) is reported as “more than 30 days”. Further, in data set [2] (thigh muscle injection, observed 7 days after the injection), the “Stimulation at the injection site” value is on record as “low”.

Regarding `O=c1ccc2ccc(OCCCCN3CCN(c4cccc5sccc45)CC3)cc2[nH]1` [Anhydride, 7-[4-(4-benzo[b]thiophen-4-yl-piperazin-1-yl)butoxy]-1H-quinolin-2-one anhydride, reference compound], in data set [1], the “The number having residue in muscle (Number having residue/Total)” value is on record as 0/3.
